≈ marks a conversion by molar mass, not a printed value.
What was measured:
Type in all cases: functional
Mus musculus [1] = species on record: Mus musculus; experiment: Protected dose which protects 50% of challenged mice from death owing to the Pasteurella multocida (59A006) infection; settings: read-out: PD50
Pasteurella multocida = experiment: Minimum inhibitory concentration required to inhibit Pasteurella multocida 59A006 in vitro
Mus musculus [2] = species on record: Mus musculus; experiment: Protected dose at which the test compound protects 50% of challenged mice from death owing to the Pasteurella multocida infection; settings: read-out: PD50

Structure (SMILES) | ED50 (Mus musculus [1]) [mg/kg] | MIC (Pasteurella multocida) [µg/mL] | ED50 (Mus musculus [2]) [mg/kg]
CC[C@H]1OC(=O)CC(O)[C@H](C)[C@@H](O[C@@H]2O[C@H](C)C[C@H](N(C)C)[C@H]2O)[C@@H](CCN2CCN(C)CC2)C[C@@H](C)C(=O)/C=C/C(C)=C/[C@@H]1C (stereo partly drawn) | > 150 | 0.39 (≈ 0.6 µM) | 
CC[C@H]1OC(=O)CC(O)[C@H](C)[C@@H](O[C@@H]2O[C@H](C)C[C@H](N(C)C)[C@H]2O)[C@@H](CCN(C)CCN(C)C(=O)[C@H](C)N)C[C@@H](C)C(=O)/C=C/C(C)=C/[C@@H]1C (stereo partly drawn) | 12 | 0.05 (≈ 0.0705 µM) | 
CC[C@H]1OC(=O)CC(O)[C@H](C)[C@@H](O[C@@H]2O[C@H](C)C[C@H](N(C)C)[C@H]2O)[C@@H](CCNCCO)C[C@@H](C)C(=O)/C=C/C(C)=C/[C@@H]1C (stereo partly drawn) | 10 | 0.2 (≈ 0.327 µM) | 
CC[C@H]1OC(=O)CC(O)[C@H](C)[C@@H](O[C@@H]2O[C@H](C)C[C@H](N(C)C)[C@H]2O)[C@@H](CCNCC(C)(C)CO)C[C@@H](C)C(=O)/C=C/C(C)=C/[C@@H]1C (stereo partly drawn) | 26 | 0.05 (≈ 0.0766 µM) | 
CC[C@H]1OC(=O)CC(O)[C@H](C)[C@@H](O[C@@H]2O[C@H](C)[C@@H](O)[C@H](N(C)C)[C@H]2O)[C@@H](CCN(C)CCN(C)C)C[C@@H](C)C(=O)/C=C/C(C)=C/[C@@H]1CO[C@@H]1O[C@H](C)[C@@H](O)[C@@H](OC)[C@H]1OC (stereo partly drawn) | > 50 | 3.13 (≈ 3.65 µM) | 
CC[C@H]1OC(=O)CC(O)[C@H](C)[C@@H](O[C@@H]2O[C@H](C)C[C@H](N(C)C)[C@H]2O)[C@@H](CCN2CCCCCC2)C[C@@H](C)C(=O)/C=C/[C@]2(C)O[C@H]2[C@@H]1C (stereo partly drawn) | 150 | 0.2 (≈ 0.301 µM) | 
CC[C@H]1OC(=O)[C@H](C)[C@@H](O[C@H]2C[C@@](C)(OC)[C@@H](O)[C@H](C)O2)[C@H](C)[C@@H](O[C@@H]2O[C@H](C)C[C@H](N(C)C)[C@H]2O)[C@](C)(O)C[C@@H](C)CN(C)[C@H](C)[C@@H](O)[C@]1(C)O [AZITHROMYCIN] |  | 0.05 (≈ 0.0668 µM) | 16
CO[C@@H]1[C@@H](O[C@@H]2O[C@H](C)[C@@H](O[C@H]3C[C@@](C)(O)[C@@H](OC(=O)CC(C)C)[C@@H](C)O3)[C@@H](N(C)C)[C@H]2O)[C@@H](CC=O)C[C@@H](C)C(=O)/C=C/C=C/C[C@@H](C)OC(=O)C[C@H]1OC(C)=O | > 150 | 6.25 (≈ 7.57 µM) | 
CC[C@H]1OC(=O)CC(O)[C@H](C)[C@@H](O[C@@H]2O[C@H](C)C[C@H](N(C)C)[C@H]2O)[C@@H](CCNC2C(O)CCCC2O)C[C@@H](C)C(=O)/C=C/C(C)=C/[C@@H]1C (stereo partly drawn) | 11 | 0.2 (≈ 0.294 µM) | 
CC[C@H]1OC(=O)CC(O)[C@H](C)[C@@H](O[C@@H]2O[C@H](C)C[C@H](N(C)C)[C@H]2O)[C@@H](CCNCC(O)CO)C[C@@H](C)C(=O)/C=C/C(C)=C/[C@@H]1C (stereo partly drawn) | 10 | 0.39 (≈ 0.609 µM) | 
CC[C@H]1OC(=O)C[C@@H](O)[C@H](C)[C@@H](O[C@@H]2O[C@H](C)[C@@H](O)[C@@H](N(C)C)[C@H]2O)[C@@H](CC=O)C[C@@H](C)C(=O)/C=C/C(C)=C/[C@@H]1CO[C@@H]1O[C@H](C)[C@@H](O)[C@@H](OC)[C@H]1OC |  | 3.13 (≈ 4.05 µM) | 66
CC[C@H]1OC(=O)CC(O)[C@H](C)[C@@H](O[C@@H]2O[C@H](C)C[C@H](N(C)C)[C@H]2O)[C@@H](CCN(CCO)CCO)C[C@@H](C)C(=O)/C=C/C(C)=C/[C@@H]1C (stereo partly drawn) | 41 | 0.2 (≈ 0.305 µM) | 
CC[C@H]1OC(=O)CC(O)[C@H](C)[C@@H](O[C@@H]2O[C@H](C)C[C@H](N(C)C)[C@H]2O)[C@@H](CCN(C)CCCN(C)C(=O)[C@H](C)N)C[C@@H](C)C(=O)/C=C/C(C)=C/[C@@H]1C (stereo partly drawn) | 5 | 0.39 (≈ 0.539 µM) | 
CC[C@H]1OC(=O)CC(O)[C@H](C)[C@@H](O[C@@H]2O[C@H](C)C[C@H](N(C)C)[C@H]2O)[C@@H](CCN(CCCN(C)C)C(C)=O)C[C@@H](C)C(=O)/C=C/C(C)=C/[C@@H]1C (stereo partly drawn) | > 25 | 0.39 (≈ 0.562 µM) | 
CC[C@H]1OC(=O)CC(O)[C@H](C)[C@@H](O[C@@H]2O[C@H](C)C[C@H](N(C)C)[C@H]2O)[C@@H](CCN2CCCCC2)C[C@@H](C)C(=O)/C=C/C(C)=C/[C@@H]1C (stereo partly drawn) | 150 | 0.2 (≈ 0.315 µM) | 
CC[C@H]1OC(=O)CC(O)[C@H](C)[C@@H](O[C@@H]2O[C@H](C)C[C@H](N(C)C)[C@H]2O)[C@@H](CCN2CCCCC2)C[C@@H](C)C(=O)/C=C/[C@]2(C)O[C@H]2[C@@H]1C (stereo partly drawn) | 114 | 0.2 (≈ 0.307 µM) | 
CC[C@H]1OC(=O)CC(O)[C@H](C)[C@@H](O[C@@H]2O[C@H](C)C[C@H](N(C)C)[C@H]2O)[C@@H](CCN2CCCCCC2)C[C@@H](C)C(=O)/C=C/C(C)=C/[C@@H]1C (stereo partly drawn) | > 200 | 0.1 (≈ 0.154 µM) | 

Structure (SMILES) | ED50 (Mus musculus [1]) [mg/kg] | MIC (Pasteurella multocida) [µg/mL] | ED50 (Mus musculus [2]) [mg/kg]
CC[C@H]1OC(=O)CC(O)[C@H](C)[C@@H](O[C@@H]2O[C@H](C)[C@@H](O)[C@H](N(C)C)[C@H]2O)[C@@H](CCN(C)CCCN(C)C)C[C@@H](C)C(=O)/C=C/C(C)=C/[C@@H]1CO[C@@H]1O[C@H](C)[C@@H](O)[C@@H](OC)[C@H]1OC (stereo partly drawn) | 41 | 3.13 (≈ 3.59 µM) | 
CC[C@H]1OC(=O)CC(O)[C@H](C)[C@@H](O[C@@H]2O[C@H](C)C[C@H](N(C)C)[C@H]2O)[C@@H](CCN(CCCN(C)C)C(=O)[C@H](C)N)C[C@@H](C)C(=O)/C=C/C(C)=C/[C@@H]1C (stereo partly drawn) | 3 | 0.39 (≈ 0.539 µM) | 
CC[C@H]1OC(=O)CC(O)[C@H](C)[C@@H](O[C@@H]2O[C@H](C)C[C@H](N(C)C)[C@H]2O)[C@@H](CCN(C)CCCN(C)C(=O)CNC)C[C@@H](C)C(=O)/C=C/C(C)=C/[C@@H]1C (stereo partly drawn) | 6 | 0.39 (≈ 0.539 µM) | 
CC[C@H]1OC(=O)CC(O)[C@H](C)[C@@H](O[C@@H]2O[C@H](C)C[C@H](N(C)C)[C@H]2O)[C@@H](CCN2CC(C)CC(C)C2)C[C@@H](C)C(=O)/C=C/[C@]2(C)O[C@H]2[C@@H]1C (stereo partly drawn) | > 150 | 0.2 (≈ 0.295 µM) | 
CC[C@H]1OC(=O)C[C@@H](O)[C@H](C)[C@@H](O[C@@H]2O[C@H](C)C[C@H](N(C)C)[C@H]2O)[C@@H](CC=O)C[C@@H](C)C(=O)/C=C/[C@]2(C)O[C@H]2[C@@H]1C [ROSARAMICIN] | 68 | 0.2 (≈ 0.344 µM) | 
CCNCC[C@H]1C[C@@H](C)C(=O)/C=C/C(C)=C/[C@H](C)[C@@H](CC)OC(=O)CC(O)[C@H](C)[C@H]1O[C@@H]1O[C@H](C)C[C@H](N(C)C)[C@H]1O (stereo partly drawn) | > 150 | 0.2 (≈ 0.336 µM) | 
CC[C@H]1OC(=O)C[C@@H](O)[C@H](C)[C@@H](O[C@@H]2O[C@H](C)[C@@H](O[C@H]3C[C@@](C)(O)[C@@H](O)[C@H](C)O3)[C@H](N(C)C)[C@H]2O)[C@@H](CC=O)C[C@@H](C)C(=O)/C=C/C(C)=C/[C@@H]1CO[C@@H]1O[C@H](C)[C@@H](O)[C@@H](OC)[C@H]1OC [TYLOSIN] | 86 | 25 (≈ 27.3 µM) | 
CC[C@H]1OC(=O)C[C@@H](O)[C@H](C)[C@@H](O[C@@H]2O[C@H](C)[C@@H](O)[C@H](N(C)C)[C@H]2O)[C@@H](CCN2C[C@H](C)C[C@H](C)C2)C[C@@H](C)C(=O)/C=C/C(C)=C/[C@@H]1CO[C@@H]1O[C@H](C)[C@@H](O)[C@@H](OC)[C@H]1OC [TILMICOSIN] |  | 1.56 (≈ 1.79 µM) | 99
CC[C@H]1OC(=O)CC(O)[C@H](C)[C@@H](O[C@@H]2O[C@H](C)C[C@H](N(C)C)[C@H]2O)[C@@H](CCN2CCCC2)C[C@@H](C)C(=O)/C=C/C(C)=C/[C@@H]1C (stereo partly drawn) | 128 | 0.39 (≈ 0.628 µM) | 
CC[C@H]1OC(=O)CC(O)[C@H](C)[C@@H](O[C@@H]2O[C@H](C)C[C@H](N(C)C)[C@H]2O)[C@@H](CCN(C)CCN(C)C(=O)CN)C[C@@H](C)C(=O)/C=C/C(C)=C/[C@@H]1C (stereo partly drawn) | 4 | 0.2 (≈ 0.288 µM) | 
CC[C@H]1OC(=O)CC(O)[C@H](C)[C@@H](O[C@@H]2O[C@H](C)C[C@H](N(C)C)[C@H]2O)[C@@H](CCN(C)C)C[C@@H](C)C(=O)/C=C/C(C)=C/[C@@H]1C (stereo partly drawn) | 150 | 0.39 (≈ 0.656 µM) | 
CC[C@H]1OC(=O)CC(O)[C@H](C)[C@@H](O[C@@H]2O[C@H](C)C[C@H](N(C)C)[C@H]2O)[C@@H](CCN(CCCN(C)C)C(=O)CNC)C[C@@H](C)C(=O)/C=C/C(C)=C/[C@@H]1C (stereo partly drawn) | 6 | 1.56 (≈ 2.16 µM) | 
CO[C@@H]1[C@@H](O[C@@H]2O[C@H](C)[C@@H](O[C@H]3C[C@@](C)(O)[C@@H](OC(=O)CC(C)C)[C@H](C)O3)[C@H](N(C)C)[C@H]2O)[C@@H](CC=O)C[C@@H](C)C(=O)/C=C/[C@@H]2O[C@H]2C[C@@H](C)OC(=O)C[C@H]1OC(C)=O [CARBOMYCIN A] | > 150 | 1.56 (≈ 1.85 µM) | 
CC[C@H]1OC(=O)CC(O)[C@H](C)[C@@H](O[C@@H]2O[C@H](C)C[C@H](N(C)C)[C@H]2O)[C@@H](CCN(C)CCNC)C[C@@H](C)C(=O)/C=C/C(C)=C/[C@@H]1C (stereo partly drawn) | > 20 | 0.2 (≈ 0.314 µM) | 
CC[C@H]1OC(=O)CC(O)[C@H](C)[C@@H](O[C@@H]2O[C@H](C)C[C@H](N(C)C)[C@H]2O)[C@@H](CCN(CCCN(C)C)C(=O)CN)C[C@@H](C)C(=O)/C=C/C(C)=C/[C@@H]1C (stereo partly drawn) | 4 | 0.78 (≈ 1.1 µM) | 
CC[C@H]1OC(=O)CC(O)[C@H](C)[C@@H](O[C@@H]2O[C@H](C)C[C@H](N(C)C)[C@H]2O)[C@@H](CCNCCN(C)C)C[C@@H](C)C(=O)/C=C/C(C)=C/[C@@H]1C (stereo partly drawn) | 100 | 0.2 (≈ 0.314 µM) | 
CC[C@H]1OC(=O)CC(O)[C@H](C)[C@@H](O[C@@H]2O[C@H](C)C[C@H](N(C)C)[C@H]2O)[C@@H](CCNC(C)(C)C)C[C@@H](C)C(=O)/C=C/C(C)=C/[C@@H]1C (stereo partly drawn) | 150 | 0.39 (≈ 0.626 µM) | 
